From paper PMC8000724, “Trans-Epithelial Transport, Metabolism, and Biological Activity Assessment of the Multi-Target Lupin Peptide [sequence] (P5) and Its Metabolite [sequence] (P5-Met)” (Nutrients, 2021)

Assays:
[1] = test system: differentiated Caco-2 cells (AP membrane peptidases); assay: Metabolites of P5 produced by Caco-2 cell peptidases, MS analysis of AP solutions; assay type: in vitro ADME, human; parameters: key to Metabolite of P5 identified in the AP compartment: Mixture / Metabolite of P5 identified in the AP compartment: Alone: x, detected; n.d., not detected
Experimental: Prior to experiments, the cell monolayer integrity and differentiation were checked by TEER measurement as described in detail above. Peptide trans-epithelial passage was assayed in differentiated Caco-2 cells in transport buffer solution (137 mM NaCl, 5.36 mM KCl, 1.26 mM CaCl2, and 1.1 mM MgCl2, 5.5 mM glucose) according to previously described conditions. In order to reproduce the pH conditions existing in vivo in the small intestinal mucosa, the apical (AP) solutions were maintained at pH 6.0 (buffered with 10 mM morpholinoethane sulfonic acid), and the basolateral (BL)solutions were maintained at pH 7.4 (buffered with 10 mM […]). Prior to transport experiments, cells were washed twice with 500 µL PBS containing Ca^++ and Mg^++. Peptide transportation by mature Caco-2 cells was assayed by loading the AP compartment with P5 alone, in mixture with […] (P3) and […] (P7), and/or P5-met (500 μM) in the AP transport solution (500 µL) and the BL compartment with the BL transport solution (700 µL). The plates were incubated at 37 °C and the BL solutions were collected at different time points (i.e., 15, 30, 60, 90, and 120 min) and replaced with fresh solutions pre-warmed at 37 °C. All BL and AP solutions collected at the end of the transport experiment were stored at −80 °C prior to analysis. Three independent transport experiments were performed, each in duplicate. In order to assess the involvement of transcytotic process in peptides passage, parallel transport experiments were performed in the presence of 500 nM wortmannin in both the AP and BL compartment, over 60 min incubation time.
The medium collected at the end of transport experiments from AP and BL chambers (500 µL and 700 µL, respectively) were freeze-dried and residues were solubilized in HPLC water (100 µL). Samples were desalted with C18 resin ZipTip by using 80% ACN, 0.1% FA as eluent (Millipore Corporation, Bedford, MA, USA). Each sample was lyophilized under speed-vacuum for 5 h at 30°C and re-dissolved in 50 μL (0.1% formic acid), before MS analysis. Purified BL samples were analyzed on a SL IT mass spectrometer interfaced with a HPLC- Chip Cube source (Agilent Technologies, Palo Alto, CA, USA). Data were processed with MSD Trap control 4.2, and Data analysis 4.2 version (Agilent Technologies, Palo Alto, CA, USA). The chromatographic separation was performed using a 1200 HPLC system equipped with a binary pump. […] Specifically, The monitored MRM transitions of P5-met were from the mono-charged precursor ion [M^+H]^+ (m/z 882.43) to product-ions m/z 678.3 and 407.1, respectively. […]

[2] = molecular target: T1, HMGCoAR (catalytic domain) (Homo sapiens, UniProt P04035); assay: HMGCoAR activity assay; assay type: biochemical; details: 10-500 µM peptide, 37 °C, NADPH absorbance 340 nm at 0 and 10 min
T1 construct: finally the HMGCoAR (catalytic domain) (2 µL); purchased Sigma-Aldrich
T1 sequence (P04035 340-888 limits assumed): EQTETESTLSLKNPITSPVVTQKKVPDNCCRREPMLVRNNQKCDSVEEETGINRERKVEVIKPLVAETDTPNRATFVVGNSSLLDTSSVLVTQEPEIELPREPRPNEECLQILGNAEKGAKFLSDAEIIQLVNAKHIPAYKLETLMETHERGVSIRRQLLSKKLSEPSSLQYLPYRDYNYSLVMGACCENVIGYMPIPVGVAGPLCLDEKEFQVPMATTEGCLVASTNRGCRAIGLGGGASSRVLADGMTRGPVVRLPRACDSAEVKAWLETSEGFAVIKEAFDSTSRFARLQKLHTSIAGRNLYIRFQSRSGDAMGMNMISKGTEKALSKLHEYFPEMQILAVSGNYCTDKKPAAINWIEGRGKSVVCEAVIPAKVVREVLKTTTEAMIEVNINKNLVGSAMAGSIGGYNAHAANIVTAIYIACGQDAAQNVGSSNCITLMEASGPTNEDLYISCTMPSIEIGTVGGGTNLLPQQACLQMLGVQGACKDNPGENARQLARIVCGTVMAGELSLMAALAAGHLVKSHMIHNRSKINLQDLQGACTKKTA
Experimental: The experiments were carried out following the manufacturer instructions and optimized protocol. The assay buffer, NADPH, substrate solution, and HMGCoAR were provided in the HMGCoAR Assay Kit (Sigma Aldrich SRL, Milan, Italy). The experiments were carried out following the manufacturer instructions at 37 °C. In particular, each reaction (200 µL) was prepared adding the reagents in the following order: 1× assay buffer, a 10–500 µM doses of P5 and P5-met or vehicle (C), the NADPH (4 µL), the substrate solution (12 µL), and finally the HMGCoAR (catalytic domain) (2 µL). Subsequently, the samples were mixed and the absorbance at 340 nm read by the microplate reader Synergy H1 (Winooski, VT, USA) at time 0 and 10 min. The HMGCoAR-dependent oxidation of NADPH and the inhibition properties of peptides were measured by absorbance reduction, which is directly proportional to enzyme activity.

- Spectral Intensity of the metabolite in the AP compartment ([1]; Caco-2, AP compartment, end of incubation 120 min, used as measure of metabolite abundance): 1.21 × 10^7
- Metabolite of P5 identified in the AP compartment: Alone ([1]; P5 incubated alone (500 μM), Caco-2, end of incubation 120 min): x
- Metabolite of P5 identified in the AP compartment: Mixture ([1]; P5 incubated in mixture with P3 and P7 (500 μM each), Caco-2, end of incubation 120 min): x
- IC50 [2]: 175 µM
Substance: H-LPKHSDAD-OH [Peptide P5-met]
